Test results as given in US11891623B2, “Generation of neural stem cells from human trophoblast stem cells” (Accelerated BioSciences Corp., priority 2010, dated 2024).

How the values were obtained:
hTS cells = experiment: LIF dose effect on pluripotency transcription factors in hTS cells (RT-PCR, qPCR, flow cytometry); format: cell-based, human
Description: The differential gene expressions of Oct4, Sox2, NANOG, fgfr2, FGF4, BMP4, Cdx2, and endogenous control β-actin (ACTB) were measured in the hTS and the hTS cells treated by 500 units LIF (Chemicon, Temecula, CA) by IQ5 Real-time PCR detection system (Bio-Rad Laboratories) that using fluorescein as an internal passive reference dye for normalization of well-to-well optical variation. PCR amplifications were carried out in a total volume of 25 μl, containing 12.5 μl of 2×SYBR Green supermix (Bio-Rad), 0.5 μl of 10 μM of each primer and 0.5 μl of cDNA samples and mixed with sterile water. The reaction was initiated at 95° C., 3 minutes, followed by 60 three-step amplification cycles consisting of 30 s denaturation at 95° C., 30 s annealing at 60° C., 15 s extension at 72° C. At final dissociation stage, it was run to generate a melting curve for verification of amplification product specificity. Real-time qPCR was monitored and analyzed by the Bio-Rad IQ5 optical system software version 2.0 (Bio-Rad). Relative mRNA levels were calculated using the comparative Ct method (Bio-Rad instruction manual) and presented with ratio to biological controls. ACTB transcript levels were confirmed to correlate well with total RNA amounts and therefore used for normalization throughout. All primer pairs used were confirmed to approximately double the amount of product within one cycle and to yield a single product of the predicted size. Primer sequences of Oct4, Sox2, NANOG, fgfr2, FGF4, BMP4, Cdx2, and endogenous control β-actin (ACTB) are shown in Supplemental Data Table 3.
Cells (5×10^6 cells/ml) were incubated with a variety of primary antibodies for 30 min and then incubated with the appropriate fluorescein isothiocyanate (FITC)-, phycoerythrin (PE)- or Rho-conjugated secondary antibody (Jackson ImmunoResearch, West Grove, PA) at adjusted dilution for 1 h at 4° C. After thorough washing, cells were re-suspended in PBS (1 ml) and subjected to flow cytometry (FACScan, BD Biosciences, San Jose, CA). The data were analyzed with Cell-Quest software (BD Biosciences).
The effects of LIF withdrawal on human trophoblast stem (hTS) cells were examined since hTS cells expresses pluripotent gene markers of both embryonic stem (ES) cells and trophoblastic stem (TS) cells such as Oct4, Nanog, Sox2, and Cdx2 (FIG. 1a). hTS cells were treated with different dosages of LIF, i.e., 500 (mimic at ampulla), 250 (mimic at mid-portion), and 125 units (mimic at isthmus) for 3 days each, showing that LIF promoted Oct4 expression but represses Cdx2, Nanog, and Sox2 expressions in a dose-dependent manner (FIG. 1b). Quantitative PCR analyses supported these findings (FIG. 1c). As the relative expression ratio of Oct4 to Cdx2 enables to determine cell fate in early embryonic differentiation (Niwa et al., 2000), the Oct4/Cdx2 ratio ([…]) appeared to be the highest at the ampulla which decreased to 0.2-fold at mid-portion and became near one at isthmic portion (FIG. 1d). This decreasing trend of Oct4/Cdx2 ratio actually facilitates the differentiation towards trophectoderm fate (Niwa et al., 2005). […] This role of rescuer was further supported by the prominently high Nanog/Oct4 ratio of LIF with 125 units compared to the ratio of LIF with 500 units and the apparent increase of Cdx2/Oct4 ratio at LIF with 125 units (FIG. 1e) No apparent change of Sox2/Cdx2 was found.

6-OHDA-induced PD rats = experiment: Immunofluorescence tissue analysis of regeneration of the dopaminergic nigrostriatal pathway; format: in vivo
Description: To obtain the brain sections, rats were anesthetized by sodium pentobarbitone (60 mg/kg i.p., Apoteksbolaget, Sweden) and trans-cardially perfused with saline (50 ml, 0.9% w/v) followed by ice-cold paraformaldehyde (200 ml, 10% w/v in 0.02 M PBS) were performed at 18- and 12-week in the acute and chronic PD rats, respectively. Brain sections were subjected for immunocytochemistry, immunohistochemistry, and immunofluorescence tissue analysis as indicated.
To further verify the regeneration of the dopaminergic nigrostriatal pathway after cell therapy, immunofluorescence tissue analysis was performed (TissueGnostics Gmbh, Vienna, Austria). Brain sections were investigated, including 14 acute PD rats (i.e., 2 at 1-week and 2 at 6-week post-injury and 2 controls, 6 at 12-weeks after cell transplantation and 2 controls) and 4 chronic PD rats (i.e., 2 at 12-week after cell therapy and 2 controls). In the SNC, 6-OHDA caused progressive neural degeneration, resulting in various sizes of cavity at 6 weeks post-injury (FIG. 31).

Huh-7 cells = experiment: BBP-induced signaling in Huh-7 cells (RT-PCR, Western blot, immunofluorescence); format: cell-based, human; conditions: PD98059 20 μM, 1 h pretreatment
Description: Huh-7 cells (3×10^5) were seeded into a 6-well dish and incubated for 24 h. Cells cultured serum-free medium overnight were treated with BBP (1 μM) for various time intervals. After BBP stimulation, cells were washed twice with PBS. Total RNAs were extracted by TRIzol methods (Invitrogen). RNA (2 μg) was used to synthesize cDNA by Reverse Transcription System (Promega). The c-DNAs were amplified by the specific primers. The primer pairs were designed as follows: AhR, forward 5′-TACTCTGCCGCCCAAACTGG-3′ (SEQ ID NO:49), reverse 5′-GCTCTGCAACCTCCGATTCC-3′ (SEQ ID NO:50); β-actin, forward 5′-CTC GCT GTC CAC CTT CCA-3′ (SEQ ID NO:51), reverse 5′-GCT GTC ACC TTC ACC GTTC-3′ (SEQ ID NO:52). PCR conditions were set at 95° C. for 5 min and 95° C. for 30 sec, 54° C. for 30 sec, 72° C. for 1 min followed by 72° C. for 10 min (36 cycles). The products were separated by 2% agarose gels and visualized by ethidium bromide.
Huh-7 cells (1×10^6) were seeded into 10 cm dish and cultured overnight. The culture medium was changed to serum-free medium for another night. Cells were treated with BBP (1 μM) for various time intervals. […] Cells were then washed twice with ice-cold PBS and lysed by RIPA lysis buffer (Minipore). Protein concentration was measured by BCA protein assay kit (Thermo). Equal amounts of protein (30 μg protein) were resolved by 8% SDS-PAGE, transferred onto PVDF membrane, and blocked with 5% non-fat dry milk for 1 h at room temperature. After blocking, the membrane was incubated with the primary antibodies including AhR (1:1000), Cox-2 (1:1000), Gαq/11 (1:100), Gβ (1:100), β-actin (1:5000), p44/42 MAP kinase (1:1000) or phospho-p44/42 MAP kinase (1:1000) overnight at 4° C. Cells were washed three times with PBST and then incubated with HRP conjugated secondary antibodies for 1 h at room temperature. After washing, the blot was visualized using an enhanced chemiluminescence kit (ECL) (Amersham).
Cells with or without transfection by AhR siRNA were cultured and treated with BBP (1 μM) for 5 and 15 min each. After treatment with primary and secondary antibodies for AhR and Gαq/11, cells were subjected to confocal immunofluorescence microscopy to analyze the dynamic movement in the cell compartments.

Compound: leukemia inhibitory factor [LIF]
- Oct4/Cdx2 ratio (hTS cells; LIF 125 units (mimic at isthmus), 3 days): one
- Nanog/Cdx2 ratio (hTS cells; LIF 125 units, 3 days): 2 fold
- Oct4/Cdx2 ratio (hTS cells; LIF 250 units (mimic at mid-portion), 3 days): 0.2 fold
- Oct4 expression (hTS cells; LIF 500, 250, 125 units, 3 days): promoted
- Cdx2, Nanog, and Sox2 expressions (hTS cells; LIF 500, 250, 125 units, 3 days, dose-dependent): represses
- Oct4/Cdx2 ratio (hTS cells; LIF 500 units (mimic at ampulla), 3 days): 0.4 fold
- Nanog/Cdx2 ratio (hTS cells; LIF 500 units, 3 days): 0.1 fold
- Nanog expression (hTS cells; LIF-induced cells, isthmus level (125 U/ml), flow cytometry): 62.5%
- RA-induced Nanog expression (hTS cells; hTS cells preincubated with RA (10 μM) overnight, then LIF 125, 250, 500 U/ml 1 day, flow cytometry): suppresses

Compound: NCCc1cc(O)c(O)cc1O [6-OHDA, 6-hydroxydopamine]
- DA (TH+) neurons in SNC compared to intact side (6-OHDA-induced PD rats; 1-week post-injury): 48%
- DA (TH+) neurons in striatum compared to intact side (6-OHDA-induced PD rats; 1-week post-injury): 78%
- DA (TH+) neurons in SNC compared to intact side (6-OHDA-induced PD rats; 6-week post-injury): 13%
- DA (TH+) neurons in striatum compared to intact side (6-OHDA-induced PD rats; 6-week post-injury): 4%
- GFAP(+) cells in lesioned striatum compared to intact side (6-OHDA-induced PD rats; 6 weeks post-injury): 65.5%

Compound: COc1cccc(-c2cc(=O)c3ccccc3o2)c1N [PD98059]
- BBP-induced ERK phosphorylation and COX-2 activation (Huh-7 cells): blocked
